Assay results published in patent EP0129932A1, “N,N,N',N'-tetra (hydroxyethyl)-5-acetylamino-2,4,6-triiodoisophtaloyldiglycinamide, a process for the preparation of said compound and an X-ray contrast agent containing said compound” (DAGRA N.V., priority 1983, dated 1985).
≈ marks a conversion by molar mass, not a printed value.

Assays:
mice = assay: intravenous toxicity in mice; assay type: in vivo; details: solution of 300 mg I/ml, injection rate 20 g 1/kg/min
Experimental: The intravenous toxicity was determined in mice, after administration of a solution of 300 mg I/ml at an injection rate of 20 g 1/kg/min.

physchem = details: water

## CC(=O)Nc1c(I)c(C(=O)NCC(=O)N(CCO)CCO)c(I)c(C(=O)NCC(=O)N(CCO)CCO)c1I [The compound]
mice
  LD50: 15.4 g I/kg
physchem
  solubility: ~3000 mg/mL (≈ 3370 mM)
